Source: patent US11964980B2, “Crystalline forms of (S)-1-(4-fluorophenyl)-1-(2-(4-(6-(1-methyl-1H-pyrazol-4-yl)pyrrolo[2,1- f][1,2,4]triazin-4-yl)piperazinyl)-pyrimidin-5-yl)ethan-1-amine and methods of making” (Blueprint Medicines Corporation, priority 2019, dated 2024)
Converted amounts (≈) assume the structure as drawn.

Legend:
[1] = Stability comparison of the crystalline forms; format: physicochemical; conditions: ambient temperature
[2] = for Solubility, FaSSGF: pH 1.67; for Solubility, FaSSIF: pH 6.57
Procedure: Fasted simulated intestinal fluid (FaSSIF) (pH=6.57) was prepared by dissolving NaOH pellets (0.105 g), NaH2PO4·H2O (0.9875 g), and NaCl (1.5475 g) in distilled water (225 mL) and adjusting the pH to 6.57 by adding 1 N NaOH solution and 1 N HCl. Water was then added to a volume of 250 mL to produce phosphate buffer. Biorelevant powder (0.56 g) was dissolved in the phosphate buffer (125 mL), then made up to 250 mL using phosphate buffer. The prepared solution was left standing for 2 hours and then used for solubility measurements.
Fasted simulated gastric fluid (FaSSGF) (pH=1.67) was prepared by dissolving NaCl (0.5 g) in distilled water (225 mL). The pH was adjusted to 1.67 using 1 N HCl, then the solution was made up to 250 mL using distilled water to produce NaCl/HCl solution. Biorelevant powder (0.015 g) was dissolved in NaCl/HCl solution (125 mL), then made up to 250 mL using NaCl/HCl solution. The prepared solution was ready for use.
Solubility of crystalline Form A and a mixture of crystalline Form A and crystalline Form C was measured in fasted simulated intestinal fluid (FaSSIF), fasted simulated gastric fluid (FaSSGF), and water at 37° C. Thin slurries were stirred overnight and then supernatant was collected for HPLC analysis.
Solubility of crystalline Form H of a hydrochloride salt of Compound (I), crystalline Form Tr of a tartrate salt of Compound (I), and crystalline Form T of a tosylate salt of Compound (I) was measured in fasted state simulated intestinal fluid (FaSSIF), fasted state simulated gastric fluid (FaSSGF), and water at 37° C. About 1.5 mL solution was stirred at 37° C. The salt was then added incrementally until a thin slurry was formed, followed by stirring overnight. The solids were allowed to settle, and the pH of the supernatant was taken. Supernatant was recovered for injection to HPLC and solids were recovered for XRPD.
Solubility was determined based on interpolation from a calibration curve prepared using freebase.

patients = assay: Clinical trials employing crystalline Form A: adverse effects; format: in vivo, human
Text: In clinical trials employing crystalline Form A of Compound (I), adverse effects were categorized by severity into Grades 1-5. Most adverse events reported were Grade 1 or 2, indicating crystalline Form A of Compound (I) is well-tolerated. […] Severe dose limiting toxicities for other TKIs may be a result of inhibiting a broad range of kinases.

[3] = Dynamic vapor sorption (DVS); format: physicochemical
Procedure: DVS: Dynamic Vapor Sorption (DVS) was performed using a DVS Intrinsic 1. The sample was loaded into a sample pan and suspended from a microbalance. A typical sample mass for DVS measurement was 25 mg. Nitrogen gas bubbled through distilled water provided the desired relative humidity. A typical measurement comprised the following steps: • 1. Equilibrate at 50% RH • 2. 50% to 2%. (50%, 40%, 30%, 20%, 10%, and 2%) • a. Hold minimum of 5 minutes and maximum of 60 minutes at each humidity. The pass criteria was less than 0.002% change; • 3. 2% to 95% (2%, 10%, 20%, 30%, 40%, 50%, 60%, 70%, 80%, 90%, 95%) • a. Hold minimum of 5 minutes and maximum of 60 minutes at each humidity. The pass criteria was less than 0.002% change; • 4. 95% to 2% (95%, 80%, 70%, 60%, 50%, 40%, 30%, 20%, 10%, 2%) • a. Hold minimum of 5 minutes and maximum of 60 minutes at each humidity. The pass criteria was less than 0.002% change; • 5. 2% to 50% (2%, 10%, 20%, 30%, 40%, 50%) • a. Hold minimum of 5 minutes and maximum of 60 minutes at each humidity. The pass criteria was less than 0.002% change.

[4] = XRPD of solids recovered from the solubility slurries; format: physicochemical; conditions: 37° C.; for Stability of crystalline form upon slurrying (XRPD): overnight
Procedure: XRPD: X-ray powder diffraction was done using a Rigaku MiniFlex 600. Samples were prepared on Si zero-return wafers. Typical scans were obtained from 20 of 4 to 30 degrees, with step size 0.05 degrees over five minutes with 40 kV and 15 mA. High resolution scans were obtained from 20 of 4 to 40 degrees, with step size 0.05 degrees over thirty minutes with 40 kV and 15 mA. Typical parameters for XRPD are listed below.
Solids were recovered from the slurries for analysis by XRPD. Crystalline Form H was stable upon slurrying in all solutions. Crystalline Form Tr was stable upon slurrying in water.

## Cn1cc(-c2cc3c(N4CCN(c5ncc([C@@](C)(N)c6ccc(F)cc6)cn5)CC4)ncnn3c2)cn1 [crystalline Form A, (S)-1-(4-fluorophenyl)-1-(2-(4-(6-(1-methyl-1H-pyrazol-4-yl)pyrrolo[2,1-f][1,2,4]triazin-4-yl)piperazin-1-yl)pyrimidin-5-yl)ethan-1-amine]
[1]
  Stability relative to the other crystalline forms: more stable
[2]
  Solubility, FaSSGF: 2110 µg/mL (≈ 4.23 mM)
patients
  Severe dose limiting toxicities observed for other TKIs (dermatologic, hepatic, cardiovascular): did not exhibit
patients; Grades 1-5
  Severity grade of most adverse events reported: Grade 1 or 2
[3]
  Hygroscopicity by DVS analysis: non-hygroscopic
[3]; 2-95% RH at 25° C.
  Weight change in DVS experiment: 0.42%
[3]; 2-95% RH at 40° C.
  Weight change in DVS experiment: 0.29%
[3]; 70-95% RH at 40° C.
  Weight change in DVS experiment: 0.20%
[3]; exposed to 40° C. and up to 95% relative humidity
  Moisture uptake by weight: up to 0.44%

## Cn1cc(-c2cc3c(N4CCN(c5ncc([C@@](C)(N)c6ccc(F)cc6)cn5)CC4)ncnn3c2)cn1 [crystalline Form T]
[2]
  Solubility, FaSSGF: 1880 µg/mL (≈ 3.77 mM)
  Solubility, FaSSIF: 80 µg/mL (≈ 0.16 mM)

## Cn1cc(-c2cc3c(N4CCN(c5ncc([C@@](C)(N)c6ccc(F)cc6)cn5)CC4)ncnn3c2)cn1 [crystalline Form H]
[2]
  Solubility, FaSSGF: 4180 µg/mL (≈ 8.38 mM)
  Solubility, FaSSIF: 100 µg/mL (≈ 0.201 mM)
[4]; all solutions (FaSSIF, FaSSGF, water)
  Stability of crystalline form upon slurrying (XRPD): stable
[3]; 2-95% RH at room temperature
  Weight change in DVS experiment: 15%
[3]; 80-95% RH at room temperature
  Weight change in DVS experiment: 10.8%

## Cn1cc(-c2cc3c(N4CCN(c5ncc([C@@](C)(N)c6ccc(F)cc6)cn5)CC4)ncnn3c2)cn1 [crystalline Form Tr]
[2]
  Solubility, FaSSGF: 4790 µg/mL (≈ 9.61 mM)
  Solubility, FaSSIF: 270 µg/mL (≈ 0.542 mM)
[4]; FaSSGF
  Stability of crystalline form upon slurrying (XRPD): converted into crystalline Form H
[4]; FaSSIF
  Behaviour of solid in slurry: gummed
[4]; water
  Stability of crystalline form upon slurrying (XRPD): stable
[3]; 2-95% RH at room temperature
  Weight change in DVS experiment: 4.4%

## Cn1cc(-c2cc3c(N4CCN(c5ncc([C@@](C)(N)c6ccc(F)cc6)cn5)CC4)ncnn3c2)cn1 [crystalline Form C, (S)-1-(4-fluorophenyl)-1-(2-(4-(6-(1-methyl-1H-pyrazol-4-yl)pyrrolo[2,1-f][1,2,4]triazin-4-yl)piperazin-1-yl)pyrimidin-5-yl)ethan-1-amine]
[2]
  Solubility, FaSSGF: 2720 µg/mL (≈ 5.46 mM)
  Solubility, FaSSIF: 30 µg/mL (≈ 0.0602 mM)
[3]; 2-10% RH at 25° C.
  Weight change in DVS experiment: 1.76%
[3]; 2-10% RH at 40° C.
  Weight change in DVS experiment: 1.93%
[3]; 2-95% RH at 25° C.
  Weight change in DVS experiment: 2.90%
[3]; 2-95% RH at 40° C.
  Weight change in DVS experiment: 2.99%
